target: T1, human LPAAT-β (Homo sapiens, UniProt O15120); assay: LPAAT-β cell-free assay; assay type: biochemical; conditions: Sf9 cell membrane overexpressing recombinant LPAAT-β
T1 construct: the full-length human LPAAT-β cDNA was amplified by PCR; poly-histidine tag (N); made in house; host or cells: Sf9 insect cells (baculovirus, pFastBac HTc); the membrane fraction was used as the enzyme
T1 sequence (O15120 24-278): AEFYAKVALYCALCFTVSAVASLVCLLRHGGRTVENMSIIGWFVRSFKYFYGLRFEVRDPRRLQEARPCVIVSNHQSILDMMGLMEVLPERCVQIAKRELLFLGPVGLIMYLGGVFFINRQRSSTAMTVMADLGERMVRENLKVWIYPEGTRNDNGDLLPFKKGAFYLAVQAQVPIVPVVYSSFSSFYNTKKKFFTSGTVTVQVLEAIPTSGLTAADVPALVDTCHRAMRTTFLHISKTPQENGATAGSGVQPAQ
How it was run: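 Membranes from Sf9 cells expressing His/myc-tagged full-length human LPAAT-β were used in HEPES-saline pH 7.5 with 1 mg/ml BSA. Compound was added from a 200 μM DMSO stock, and reaction with 18:1-CoA and sn-1-18:1 lysoPA (1 mM stocks) ran 25 min at RT. Released CoA was detected with DTNB at 405 nm; a radiometric variant used 200 μM [14C]18:1-CoA and 200 μM lysoPA.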

In order of falling IC50:
1. CCOc1ccc(Br)cc1-c1cc(Nc2ccc(C(N)=O)cc2)nc(N)n1 [Example 186, 4-[2-Amino-6-(5-bromo-2-ethoxy-phenyl)-pyrimidin4-ylamino]-benzamide]  740 nM
2. CCOC(=O)c1cccc(Nc2cc(-c3cc(Br)ccc3OC)nc(N)n2)c1 [Example 171, 3-[2-Amino-6-(5-bromo-2-methoxy-phenyl)-pyrimidin4-ylamino]-benzoic acid ethyl ester]  260 nM
3. CNC(=O)c1cc(Nc2cc(-c3cc(Br)ccc3OC)nc(N)n2)ccc1Cl [Example 184, 5-[2-Amino-6-(5-bromo-2-methoxy-phenyl)-pyrimidin4-ylamino]-2-chloro-N-methyl-benzamide]  200 nM
4. CCc1ccc(Cl)cc1-c1cc(Nc2ccc(Cl)cc2)nc(N)n1 [Example 167, 6-(5-Chloro-2-ethyl-phenyl)-N*-4*-(4-chloro-phenyl)-pyrimidine-2,4-diamine]  180 nM
5. Nc1nc(Nc2ccc(Cl)c(C(F)(F)F)c2)cc(-c2cc(Cl)ccc2Cl)n1 [Example 179, N*4*-(4-Chloro-3-trifluoromethyl-phenyl)-6-(2,5-dichloro-phenyl)-pyrimidin-2,4-diamine]  180 nM
6. CCOc1ccc(Br)cc1-c1cc(Nc2ccc(C(F)(F)F)cc2)ncn1 [Example 180, [6-(5-Bromo-2-ethoxy-phenyl)-pyrimidin-4-yl]-(4-trifluoromethyl-phenyl)-amine]  160 nM
7. CCc1ccc(Cl)cc1-c1cc(Nc2ccc(CCO)cc2)nc(N)n1 [Example 175, 2-{4-[2-amino-6-(5-chloro-2-ethyl-phenyl)-pyrimidin4-ylamino]-phenyl}-ethanol]  100 nM
8. CCc1ccc(Cl)cc1-c1cc(Nc2ccc([N+](=O)[O-])cc2)nc(N)n1 [Example 169, 6-(5-Chloro-2-ethyl-phenyl)-N*-4*-(4-nitro-phenyl)-pyrimidine-2,4-diamine]  93 nM
9. CCOc1ccc(Br)cc1-c1cc(Nc2ccc(C(=O)NO)cc2)nc(N)n1 [Example 183, 4-[2-Amino-6-(5-bromo-2-ethoxy-phenyl)-pyrimidin-4-ylamino]-N-hydroxy-benzamide]  88 nM
10. Nc1nc(Nc2ccc(C(F)(F)F)cc2)cc(-c2cc(Br)ccc2Cl)n1 [Example 189, 6-(5-Bromo-2-chloro-phenyl)-N*4*-(4-trifluoromethyl-phenyl)-pyrimidine-2,4-diamine]  79 nM
11. Cc1ccc(Cl)cc1-c1cc(Nc2ccc(CCO)cc2)ncn1 [Example 176, 2-{4-[6-(5-Chloro-2-methyl-phenyl)-pyrimidin-4-ylamino]-phenyl}-ethanol]  60 nM
12. CCOc1ccc(Br)cc1-c1cc(Nc2ccc(F)cc2)ncn1 [Example 192, [6-(5-Bromo-2-ethoxy-phenyl)-pyrimidin4-yl]-(4-fluoro-phenyl)-amine]  60 nM
13. Cc1ccc(Cl)cc1-c1cc(Nc2ccc(Br)cc2)ncn1 [Example 172, (4-Bromo-phenyl)-[6-(5-chloro-2-methyl-phenyl)-pyrimidin-4-yl]-amine]  45 nM
14. CCOc1ccc(Br)cc1-c1cc(Nc2ccc(Br)cc2)ncn1 [Example 181, [6-(5-Bromo-2-ethoxy-phenyl)-pyrimidin-4-yl]-(4-bromo-phenyl)-amine]  40 nM
15. CCOc1ccc(Br)cc1-c1cc(Nc2ccc(Cl)cc2)ncn1 [Example 190, [6-(5-Bromo-2-ethoxy-phenyl)-pyrimidin4-yl]-(4-chloro-phenyl)-amine]  30 nM
16. CCOC(=O)c1cccc(Nc2cc(-c3cc(Cl)ccc3Cl)nc(N)n2)c1 [Example 170, 3-[2-Amino-6-(2,5-dichloro-phenyl)-pyrimidin-4-ylamino]-benzoic acid ethyl ester]  24 nM
17. Nc1nc(Nc2ccc(Cl)cc2)cc(-c2cc(Br)ccc2Cl)n1 [Example 187, 6-(5-Bromo-2-chloro-phenyl)-N*4*-(4-chloro-phenyl)-pyrimidine-2,4-diamine]  22 nM
18. Nc1nc(Nc2ccc(Cl)cc2)cc(-c2cc(Br)ccc2OCc2ccc([N+](=O)[O-])cc2)n1 [Example 178, 6-[5-Bromo-2-(4-nitro-benzyloxy)-phenyl]-N*4*-(4-chloro-phenyl)-pyrimidine-2,4-diamine]  21 nM
19. COc1ccccc1COc1ccc(Br)cc1-c1cc(Nc2ccc(C)cc2)nc(N)n1 [Example 188, 6-[5-Bromo-2-(2-methoxy-benzyloxy)-phenyl]-N*4*-p-tolyl-pyrimidine-2,4-diamine]  21 nM
20. CCOc1ccc(Br)cc1-c1cc(Nc2ccc(CCO)cc2)ncn1 [Example 191, 2-{4-[6-(5-Bromo-2-ethoxy-phenyl)-pyrimidin-4-ylamino]-phenyl}-ethanol]  20 nM
21. Nc1nc(Nc2ccc(Cl)cc2)cc(-c2cc(Cl)ccc2OCC2CCCCC2)n1 [Example 168, 6-(5-Chloro-2-cyclohexylmethoxy-phenyl)-N*4*-(4-chloro-phenyl)-pyrimidine-2,4-diamine]  16 nM
22. C=CCOc1ccc(Cl)cc1-c1cc(Nc2ccc(Cl)cc2)nc(N)n1 [Example 174, 6-(2-Allyloxy-5-chloro-phenyl)-N*4*-(4-chloro-phenyl)-pyrimidine-2,4-diamine]  9 nM
23. Nc1nc(Nc2ccc(Cl)cc2)cc(-c2cc(Br)ccc2OCCc2ccccc2)n1 [Example 166, 6-(5-Bromo-2-phenethyloxy-phenyl)-N*4*-(4-chloro-phenyl)-pyrimidine-2,4-diamine]  5 nM
24. COc1ccccc1COc1ccc(Br)cc1-c1cc(Nc2ccc(Cl)cc2)nc(N)n1 [Example 182, 6-[5-Bromo-2-(2-methoxy-benzyloxy)-phenyl]-N*4*-(4-chloro-phenyl)-pyrimidine-2,4-diamine]  4 nM
25. COc1ccc(COc2ccc(Br)cc2-c2cc(Nc3ccc(Cl)cc3)nc(N)n2)cc1 [Example 185, 6-[5-Bromo-2-(4-methoxy-benzyloxy)-phenyl]-N*4*-(4-chloro-phenyl)-pyrimidine-2,4-diamine]  4 nM
26. Nc1nc(Nc2ccc([N+](=O)[O-])cc2)cc(-c2cc(Br)ccc2OCc2ccccc2)n1 [Example 177, 6-(2-Benzyloxy-5-bromo-phenyl)-N*4*-(4-nitro-phenyl)-pyrimidine-2,4-diamine]  2 nM

— patent US7419984B2, “Pyrimidines and uses thereof” (Cell Therapeutics, Inc., priority 2002, dated 2008)
